Laboratory results reported in US20190015400A1, “Antifungal Compositions” (priority 2017, published 2019).
Entries after “also recorded” stand apart in the source; their conditions may differ.

Assays:
[1] = system: C. albicans ATCC 10231 (strain B) biofilm; test: Biofilm disruption assay (XTT, SMIC90), POS and EBA; format: cell-based, Candida albicans; conditions: drug alone
Description: (§1) Biofilm disruption assays. […] Biofilm assays were performed in 96-well plates using XTT [2,3-bis(2-methoxy-4-nitro-5-sulfophenyl)-2H-tetrazolium-5-carboxanilide] to measure the viability of the biofilm as previously described. An overnight culture of yeast was grown at 35° C. in YEPD medium with shaking at 200 rpm. The overnight culture was diluted in RPMI 1640 medium to an OD600 between 0.12 and 0.15 to make a working stock. Working stock was transferred to the 96-well plate in 100 μL aliquots, leaving one column empty for the sterile control. The plates were incubated at 37° C. for 24 h to allow formation of the biofilm. The medium and planktonic cells from the plate were then aspirated. PBS was then used to wash any remaining planktonic cells off of the biofilm wells. 100 μL of PBS was aliquoted into wells and then removed. The wells were washed 3 times with PBS. […] Plates were incubated at 37° C. for 24 h. Finally, the plates were washed 3 times with PBS before adding 100 μL of XTT dye. The XTT was prepared by dissolving XTT at 0.5 mg/mL concentration in sterile PBS. Before adding to a plate, 1 μL of 10 mM menadione in acetone was added to 10 mL of the 0.5 mg/mL solution of XTT. After addition of XTT (containing menadione), the plates were incubated at 3 h at 37° C. in the dark. 80 μL of liquid from each well was transferred to a new plate. Plates were then read with a SpectraMax M5 plate reader (Molecular Devices, Sunnyvale, Calif., USA) for absorbance at 450 nm. For these experiments, we determined the sessile MIC (SMIC90), which is defined as the drug concentration required to inhibit the metabolic activity of biofilm by 90% compared to the growth control. The SMIC90 values were used to calculate the FICI as described above (TABLE 10). The plates used to determine the SMIC90 are provided in FIGS. 91A-H. Each assay was performed in duplicate.

[2] = system: C. glabrata ATCC 2001 (strain H) biofilm; test: as above; format: cell-based, Candida glabrata; conditions: drug alone
Description: as §1

[3] = system: Aspergillus terreus ATCC MYA-3633 (strain I); test: MIC and checkerboard assay, azoles + compounds 1-5; format: cell-based; conditions: in combination with POS
Description: (§2) These compounds were serially diluted (two-fold dilutions) horizontally on the plate in 100 μL of RPMI medium. A diluted yeast culture (25 μL of a fungal stock with OD600 of 0.125 in 10 mL of RPMI medium, which achieves a final inoculum size of around 1-5×10^3 CFU/mL) was plated across the plate (100 μL per well), making a final volume of 200 μL total per well.
(§3) The appropriate range of concentrations for each compound was determined based on their corresponding MIC values against each fungal strain. The inoculum size for yeast and filamentous fungi were the same as in the MIC experiments described in section 2.2. The 96-well plates were incubated at 35° C. for 48 h for yeasts and 72 h for the Aspergillus strain before visual inspection for growth. […] The combinational effect of the two tested compounds were considered synergistic (abbreviated SYN) if FICI<0.5, additive (abbreviated ADD) if 0.5<FICI<4, and antagonistic if FICI>4 (TABLES 2-4).

[4] = system: C. albicans ATCC 64124 (strain F) biofilm; test: Biofilm disruption assay (XTT, SMIC99), azoles + compound 2; format: cell-based, Candida albicans; conditions: for FICI / Interp.: biofilm
Description: In order to investigate the synergistic effect of azoles and our compounds on inhibiting biofilm formation of C. albicans ATCC 64124 (strain F), we performed a biofilm disruption assay in a checkerboard setup and used XTT [2,3-bis(2-methoxy-4-nitro-5-sulfophenyl)-2H-tetrazolium-5-carboxanilide] reduction to examine the metabolic activity of the biofilm. Briefly, C. albicans ATCC 64124 (strain F) was grown overnight in YEPD broth at 35° C. The culture was then diluted to an OD600 of 0.12 (equivalent to 1×10^6 CFU/mL) and 100 μL was placed into each well of a 96-well plate. The cells were incubated at 37° C. for 24 h for growth. The following day, the spent medium containing planktonic cells was aspirated and each wells were carefully washed three times with sterile phosphate buffer saline (PBS). […] The negative control (medium only) and the positive control (biofilm plus medium) wells were also included in the same 96-well plate. The plates were then incubated at 37° C. statically for additional 24 h and then washed with sterile PBS. 100 μL of a XTT (0.5 mg/mL)/menadione (1 μM) solution was added to each well, covered with aluminum foil, and incubated for 2 h at 37° C. Then, 80 μL of the colored supernatant from each well was transferred to a new 96-well plate, and the absorption was read at OD490. The percent metabolic activity of the formed biofilm at various drug concentration combinations was calculated by dividing the metabolic activity of biofilm formed for that well by that of the biofilm formed in the growth control well (in the absence of any drug). For these experiments, the sessile MIC (SMIC99) was determined, which is defined as the drug concentration required to inhibit the metabolic activity of biofilm by 99% compared to the growth control. The assay for each combination was performed in duplicates.

[5] = system: C. glabrata ATCC 2001 (strain H); test: MIC and checkerboard assay, azoles + compounds 1-5; format: cell-based, Candida glabrata
Description: as §2, §3

[6] = system: C. albicans ATCC 64124 (strain F); test: Time-kill assay, azoles + compound 2; format: cell-based, Candida albicans
Description: Each sample was incubated at 35° C. with shaking at 200 rpm. At various time points (0, 3, 6, 9, 12, and 24 h), 100 μL aliquots were taken from each sample and serially diluted (10-fold dilutions) in sterile ddH2O. 100 μL of each dilution was spread onto PDA plates and incubated at 35° C. for 48 h before colony counts were determined (FIGS. 2A-B). At the end of the 24-h experiment, 50 μL of 1 mM sterile resazurin solution was added to each sample for visual comparison of growth. Each experiment was performed in duplicate.

[7] = system: J774A.1 cells; test: Mammalian cytotoxicity assay, azoles and compound 2
Text: David K. Orren (University of Kentucky, Lexington, Ky.) and Prof. David J. Feola (University of Kentucky, Lexington, Ky.), respectively.

[8] = system: C. albicans ATCC 10231 (strain B); test: MIC and checkerboard assay, azoles + compounds 1-5; format: cell-based, Candida albicans
Description: as §2, §3

[9] = system: C. albicans ATCC 90819 (strain G); test: MIC and checkerboard assay, azoles + compounds 1-5; format: cell-based, Candida albicans
Description: as §2, §3

[10] = system: C. albicans ATCC 64124 (strain F); test: MIC and checkerboard assay, azoles + compounds 1-5; format: cell-based, Candida albicans; conditions: for MIC in combination: MIC of the labelled drug
Description: as §2, §3

[11] = combination with POS at 8×MICcombo
[12] = combination with VOR at 8×MICcombo

Question: With `C[C@@H]1[C@H](O)[C@@H](C)/C=C/C=C/C=C/C=C/C=C/C=C/C=C/[C@H](O[C@@H]2O[C@H](C)[C@@H](O)[C@H](N)[C@@H]2O)C[C@@H]2O[C@](O)(C[C@@H](O)C[C@@H](O)[C@H](O)CC[C@@H](O)C[C@@H](O)CC(=O)O[C@H]1C)C[C@H](O)[C@H]2C(=O)O` [AMB, amphotericin B] as the molecule, how does the SMIC90 [1] read?
Answer: >32 µg/mL

Question: What about the SMIC90 [2] of the same molecule?
Answer: 4 µg/mL

Question: `O=C(CCCN1CCC(O)(c2ccc(Br)cc2)CC1)c1ccc(F)cc1` [Compound 2, bromperidol] was tested. Which “combinational effect (FICI interpretation)” value (“combinational effect” below) [3] did it give?
Answer: synergy; also recorded: synergistic

Question: What about the FICI ([4]; in combination with POS) of the same molecule?
Answer: 1.02

Question: What about the Interp. ([4]; in combination with POS) of the same molecule?
Answer: ADD*

Question: What about the FICI ([4]; in combination with VOR) of the same molecule?
Answer: 1.02

Question: What about the Interp. ([4]; in combination with VOR) of the same molecule?
Answer: ADD*

Question: And the “SMIC alone (μg/mL) Cpd” value ([4]; compound alone, sessile cells)?
Answer: >128 µg/mL

Question: And the “SMIC combo (μg/mL) Cpd” value ([4]; compound in combination with POS)?
Answer: 128 µg/mL

Question: And the “SMIC combo (μg/mL) Cpd” value ([4]; compound in combination with VOR)?
Answer: 128 µg/mL

Question: What about the “combinational effect” value ([5]; in combination with POS) of the same molecule?
Answer: partial synergy

Question: And the “combinational effect” value ([5]; in combination with VOR)?
Answer: partial synergy

Question: What about the “CFU/mL throughout 24 h” value [6, 11] of the same molecule?
Answer: around 1×10^5 CFU/mL

Question: And the time-kill effect [6, 11]?
Answer: fungistatic effect

Question: What about the “reduction in CFU/mL over 24 h” value [6, 12] of the same molecule?
Answer: about 1 log10 unit

Question: And the time-kill effect [6, 12]?
Answer: fungistatic effect

Question: What about the “increase in CFU/mL” value ([6]; drug alone at the concentration of the 8×MICcombo sample, 24 h) of the same molecule?
Answer: about 1 order of magnitude

Question: What about the cell survival ([7]; drug alone at 16 μg/mL) of the same molecule?
Answer: 72±14%

Question: What about the cell survival ([7]; drug alone at 32 μg/mL) of the same molecule?
Answer: 50±7%

Question: What about the cell survival ([7]; drug alone at 64 μg/mL) of the same molecule?
Answer: 30±4%

Question: And the “highest concentration at which no cytotoxicity was observed” value ([7]; drug alone, stated for all three cell lines (BEAS-2B, HEK-293, J774A.1), J774A.1 limiting)?
Answer: 8 µg/mL

Question: And the “combinational effect” value ([8]; in combination with ITC)?
Answer: partial synergy

Question: What about the “combinational effect” value ([8]; in combination with KTC) of the same molecule?
Answer: partial synergy

Question: What about the “combinational effect” value ([8]; in combination with POS) of the same molecule?
Answer: partial synergy

Question: What about the “combinational effect” value ([8]; in combination with VOR) of the same molecule?
Answer: partial synergy

Question: What about the “combinational effect” value ([9]; in combination with POS) of the same molecule?
Answer: synergy

Question: What about the “combinational effect” value ([9]; in combination with VOR) of the same molecule?
Answer: synergy

Question: And the MIC in combination ([10]; combination compound 2 + ITC)?
Answer: 64 µg/mL

Question: And the MIC in combination ([10]; combination compound 2 + POS)?
Answer: 4 µg/mL

Question: What about the MICalone ([10]; drug alone) of the same molecule?
Answer: 128 µg/mL

Question: What about the FICI ([10]; in combination with ITC) of the same molecule?
Answer: 0.56

Question: What about the “combinational effect” value ([10]; in combination with ITC) of the same molecule?
Answer: partial synergy

Question: And the “combinational effect” value ([10]; in combination with KTC)?
Answer: partial synergy

Question: What about the FICI ([10]; in combination with POS) of the same molecule?
Answer: 0.16

Question: What about the “combinational effect” value ([10]; in combination with POS) of the same molecule?
Answer: synergy

Question: What about the “combinational effect” value ([10]; in combination with VOR) of the same molecule?
Answer: synergy
